We go through 3 compounds from ChEMBL document CHEMBL3822384, “2-(3-Methoxyphenyl)quinazoline Derivatives: A New Class of Direct Constitutive Androstane Receptor (CAR) Agonists” (J Med Chem, 2016).

Series [1] has as its target T1, Vitamin D3 receptor (Homo sapiens) (UniProt P11473).
T1 sequence (whole entry): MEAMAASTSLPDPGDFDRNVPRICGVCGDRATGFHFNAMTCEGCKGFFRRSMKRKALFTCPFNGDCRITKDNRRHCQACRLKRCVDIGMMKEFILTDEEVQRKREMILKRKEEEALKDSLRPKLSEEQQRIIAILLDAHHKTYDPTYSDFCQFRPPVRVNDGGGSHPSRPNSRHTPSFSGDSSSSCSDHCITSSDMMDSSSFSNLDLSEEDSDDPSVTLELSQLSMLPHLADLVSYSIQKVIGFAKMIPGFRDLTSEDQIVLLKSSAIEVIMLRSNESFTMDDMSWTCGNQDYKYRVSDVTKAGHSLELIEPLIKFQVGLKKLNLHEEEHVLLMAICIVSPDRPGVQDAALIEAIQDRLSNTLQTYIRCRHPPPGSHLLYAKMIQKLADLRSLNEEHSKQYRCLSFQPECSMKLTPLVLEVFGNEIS
As to the kind of experiment: Agonist activity at VDR in human primary hepatocytes assessed as upregulation of CYP3A5 mRNA expression at 10 uM after 24 hrs by qRT-PCR method. Particulars: Hepatocyte. The series is classed as cell-based. For orientation: Real-time PCR tracks product formation cycle by cycle.

Series [2] addresses T2, Aryl hydrocarbon receptor (Homo sapiens, UniProt P35869).
T2 sequence (P35869 whole entry): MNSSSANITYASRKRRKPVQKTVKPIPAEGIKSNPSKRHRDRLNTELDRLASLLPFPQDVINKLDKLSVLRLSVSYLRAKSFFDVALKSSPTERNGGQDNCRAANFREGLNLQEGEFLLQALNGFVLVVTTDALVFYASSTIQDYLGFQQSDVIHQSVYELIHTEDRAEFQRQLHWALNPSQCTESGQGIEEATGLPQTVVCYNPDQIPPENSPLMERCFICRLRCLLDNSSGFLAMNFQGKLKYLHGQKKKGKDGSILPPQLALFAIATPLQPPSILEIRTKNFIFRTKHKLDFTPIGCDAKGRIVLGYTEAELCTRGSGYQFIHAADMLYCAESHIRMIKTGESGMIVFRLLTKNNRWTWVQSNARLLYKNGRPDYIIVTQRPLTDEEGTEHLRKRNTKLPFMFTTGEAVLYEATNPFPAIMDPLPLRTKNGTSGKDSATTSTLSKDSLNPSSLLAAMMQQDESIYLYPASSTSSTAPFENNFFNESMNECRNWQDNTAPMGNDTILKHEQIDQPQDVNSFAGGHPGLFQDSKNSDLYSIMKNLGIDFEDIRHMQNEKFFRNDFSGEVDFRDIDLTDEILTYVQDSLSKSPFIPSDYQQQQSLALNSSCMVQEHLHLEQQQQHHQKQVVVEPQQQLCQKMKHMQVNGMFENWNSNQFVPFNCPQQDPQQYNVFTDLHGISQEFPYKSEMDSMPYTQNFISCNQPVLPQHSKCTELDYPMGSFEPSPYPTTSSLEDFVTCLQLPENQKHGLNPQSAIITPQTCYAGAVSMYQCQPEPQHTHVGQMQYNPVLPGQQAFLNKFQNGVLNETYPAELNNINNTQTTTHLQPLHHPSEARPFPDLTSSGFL
As to the kind of experiment: Agonist activity at AHR in human HepaRG cells assessed as upregulation of CYP1B1 mRNA expression at 10 uM after 24 hrs by qRT-PCR method. The series is classed as cell-based.

The target in a further series is Cytochrome P450 2D6 (Homo sapiens, UniProt P10635). As to the kind of experiment: Inhibition of recombinant human CYP2D6 by P450-Glo luminescence assay. It is filed as ADME.
The target in series [3] is T3, Nuclear receptor subfamily 1 group I member 3 (Homo sapiens, UniProt Q14994).
T3 sequence (Q14994 whole entry): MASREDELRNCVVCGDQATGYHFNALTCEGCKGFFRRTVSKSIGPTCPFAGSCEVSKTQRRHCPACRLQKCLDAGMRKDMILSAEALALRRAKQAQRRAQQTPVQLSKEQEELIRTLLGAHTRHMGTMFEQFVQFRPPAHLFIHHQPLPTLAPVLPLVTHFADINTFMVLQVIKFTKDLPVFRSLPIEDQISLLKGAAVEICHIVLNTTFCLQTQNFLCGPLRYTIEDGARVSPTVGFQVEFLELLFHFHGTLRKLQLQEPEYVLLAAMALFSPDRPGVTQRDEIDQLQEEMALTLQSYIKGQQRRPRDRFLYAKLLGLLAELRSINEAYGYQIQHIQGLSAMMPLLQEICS
As to the kind of experiment: Agonist activity at CAR in human primary hepatocytes assessed as upregulation of MDR/ABCB1 mRNA expression at 10 uM after 24 hrs by qRT-PCR method. The series is classed as cell-based, Hepatocyte.

The target in another series is T4, Cytochrome P450 1A2 (Homo sapiens, UniProt P05177).
T4 sequence (P05177 whole entry): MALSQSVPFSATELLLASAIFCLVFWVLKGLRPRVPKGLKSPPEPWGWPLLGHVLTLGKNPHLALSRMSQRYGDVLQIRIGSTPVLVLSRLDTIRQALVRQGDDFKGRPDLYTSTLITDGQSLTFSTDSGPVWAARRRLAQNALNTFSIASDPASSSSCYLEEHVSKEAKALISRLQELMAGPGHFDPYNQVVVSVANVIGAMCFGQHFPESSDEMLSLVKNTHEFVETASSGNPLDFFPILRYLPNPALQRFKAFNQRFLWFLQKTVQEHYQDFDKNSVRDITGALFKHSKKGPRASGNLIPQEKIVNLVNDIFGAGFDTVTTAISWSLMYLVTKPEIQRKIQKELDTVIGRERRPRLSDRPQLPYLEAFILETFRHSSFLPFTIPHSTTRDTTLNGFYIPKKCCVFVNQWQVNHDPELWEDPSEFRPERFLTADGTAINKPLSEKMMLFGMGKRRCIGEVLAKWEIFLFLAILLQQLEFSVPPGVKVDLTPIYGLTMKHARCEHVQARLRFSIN
As to the kind of experiment: Inhibition of recombinant human CYP1A2 by P450-Glo luminescence assay. It is filed as ADME.

Series [4] deals with T5, Nuclear receptor subfamily 1 group I member 2 (Homo sapiens, UniProt O75469).
T5 sequence (O75469 whole entry): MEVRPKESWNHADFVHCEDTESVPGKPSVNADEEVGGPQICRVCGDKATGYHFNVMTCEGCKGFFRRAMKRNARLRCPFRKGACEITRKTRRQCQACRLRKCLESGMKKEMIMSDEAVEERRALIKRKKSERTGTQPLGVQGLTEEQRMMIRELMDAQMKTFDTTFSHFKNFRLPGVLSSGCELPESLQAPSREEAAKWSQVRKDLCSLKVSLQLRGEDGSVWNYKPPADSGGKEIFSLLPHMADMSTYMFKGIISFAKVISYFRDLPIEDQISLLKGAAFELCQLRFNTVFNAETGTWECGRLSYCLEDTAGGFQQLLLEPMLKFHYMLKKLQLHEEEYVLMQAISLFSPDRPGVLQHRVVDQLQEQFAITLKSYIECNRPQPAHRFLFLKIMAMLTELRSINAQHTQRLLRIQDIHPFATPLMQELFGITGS
As to the kind of experiment: (§1) Agonist activity at PXR expressed in human HepG2 cells after 24 hrs by p3A4-luciferase reporter gene assay. For orientation: Reporter assays use an easily measured gene product as a stand-in for the process of interest.

A further series concerns the target T6, PXR (NR1I2) (Homo sapiens, UniProt O75469).
T6 sequence (O75469 whole entry): T5 sequence (O75469 whole entry)
The series is described as §1. Particulars: human, HepG2 cells expressing PXR.

Molecules are shown by their SMILES. The source made the active and inactive calls. The rule behind the calls is not given here.

Cytochrome P450 2D6, sequence (P10635 whole entry): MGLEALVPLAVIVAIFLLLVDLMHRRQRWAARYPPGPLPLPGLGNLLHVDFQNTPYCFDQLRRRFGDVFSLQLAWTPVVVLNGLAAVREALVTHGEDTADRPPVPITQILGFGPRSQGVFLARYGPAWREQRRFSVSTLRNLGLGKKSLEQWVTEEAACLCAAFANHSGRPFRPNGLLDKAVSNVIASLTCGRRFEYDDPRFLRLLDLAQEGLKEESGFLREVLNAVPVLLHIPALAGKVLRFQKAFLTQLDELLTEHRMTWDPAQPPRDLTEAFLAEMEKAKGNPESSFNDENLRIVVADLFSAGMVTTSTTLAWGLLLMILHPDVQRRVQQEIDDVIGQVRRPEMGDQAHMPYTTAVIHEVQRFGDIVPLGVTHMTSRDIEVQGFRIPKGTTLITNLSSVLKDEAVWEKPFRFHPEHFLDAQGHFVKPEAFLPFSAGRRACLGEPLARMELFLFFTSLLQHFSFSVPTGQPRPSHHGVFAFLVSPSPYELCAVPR

As for `COc1cccc(-c2nc(OC)c3ccccc3n2)c1`, the outcome in series [1] was Active. The result in series [2] and in series [3] was Active. In addition, the IC50 (as a rule, the concentration that gives 50% inhibition) on Cytochrome P450 2D6 was “Not Active”; at Cytochrome P450 1A2, 180 nM. For the same compound, in series [4], the EC50 – broadly, the concentration needed to bring the measured effect to its halfway point – was above 3000 nM. The Emax (as a rule, the maximal effect, on the per cent scale that the assay sets) at 24 h on PXR (NR1I2) is above 250%.
For `COc1cccc(-c2nc3ccccc3c(=S)[nH]2)c1`, the outcome in series [1] was Active. Also, the result in series [2] and in series [3] was Active. The IC50 result at Cytochrome P450 2D6 is “Not Active”; on Cytochrome P450 1A2, 750 nM. The compound also gave a 50% effective concentration (EC50) in series [4] of 860 nM. Moreover, the Emax at 24 h at PXR (NR1I2) amounted to 165%.
Consider `COc1cccc(-c2nc(SC)c3ccccc3n2)c1`, for which the outcome in series [1] was Active. The result in series [2] and in series [3] was Active. For the same compound, the IC50 at Cytochrome P450 2D6 (read-out: IC50) turned out to be 17300 nM; at Cytochrome P450 1A2 it was 420 nM. Moreover, the EC50 in series [4] is above 3500 nM. This compound also came in with a maximal effect (Emax) at 24 h at PXR (NR1I2) above 250%.
